“Also recorded” adds a separate entry of the source.
Tests used:
HMLE-Twist-ER cells [1] = experiment: LC-MS measurement of cellular DHU and uracil; format: cell-based, human; conditions: OHT treatment of HMLE-Twist-ER cells, 15 days time course
Protocol: Solvents were obtained from Fisher Scientific and were Optima LC/MS grade except where otherwise specified. Cells grown in standard tissue culture plates (500,000 cells per sample) were washed twice in an ice-cold solution of 0.9% NaCl in deionized water, followed by extraction on dry ice in 1 mL 80% methanol containing 10 ng/mL phenylalanine-d8 and valine-d8 (Sigma-Aldrich) as internal standards. The cell mixtures were shaken vigorously on a Vortex mixer for 10 min. at 4° C., vacuum-dried, and resuspended in 100 μL LC/MS grade water (Fisher). These extracts were then centrifuged at 15,000×g at 4° C. for 10 min, and the supernatants were passed through a cellulose acetate particulate filter (National Scientific). […]
The UPLC system was coupled to a QExactive orbitrap mass spectrometer equipped with a HESI II probe (Thermo Fisher Scientific) operating in positive ion mode. […] Quantitation of the data was performed with XCalibur QuanBrowser 2.2 (Thermo Fisher Scientific) using a 5 ppm mass tolerance, by a researcher blinded to the identity of the samples. Pure thymine (T0376), and uracil (U1128) were obtained from Sigma-Aldrich and dihydrothymine (L01996), and dihydrouracil (L01918) were obtained from Alfa Aesar and were run in half-log serial dilution (3 nM-100 μM) to confirm chromatographic retention times and generate standard curves for quantitation of each analytical batch.

HMLE-Twist-ER cells [2] = experiment: in vitro mammosphere formation assay; format: cell-based, human; conditions: HMLE-Twist-ER cells expressing shDPYD_1, exogenous addition of metabolite
Protocol: 500 cells/well were seeded in 96-well ultra-low adhesion plates (Corning, 3474) in MammoCult Basal Medium (Stem Cell Technology, 05621) containing 2.6% methylcellulose (Stem Cell Technology, H4100) and 10% MammoCult Proliferation Supplements (Stem Cell Technology, 05621), supplemented with 0.5 μg/ml hydrocortisone, 4 μg/ml Heparin and Pen/strep. Spheres were counted 12-14 days later.

Compound | increase of cellular DHU/uracil molar ratio (HMLE-Twist-ER cells [1]) | rescue of mammosphere formation (HMLE-Twist-ER cells [2])
4-hydroxytamoxifen [OHT] | 5 fold | 
O=C1CCNC(=O)N1 [DHU, dihydrouracil] |  | more strongly than uracil; also recorded: dose-dependent rescue of mammosphere formation
O=c1cc[nH]c(=O)[nH]1 [uracil] |  | significantly smaller effect
CC1CNC(=O)NC1=O (stereo not shown) [DHT, dihydrothymine] |  | dose-dependent rescue of mammosphere formation
